# Source: patent publication US9340577B2, “HLA binding motifs and peptides and their uses” (priority 1992, dated 2016)
# No end group written: not given here.
# Legend:
# Test in all cases: biochemical
# Format in all cases: binding
# A*6802 = A*6802 (Homo sapiens, UniProt P04439, A269V/D140Y/D185E/E176V/E277Q/E87N/F33Y/G231S/I121R/I166T/I218V/L180W/L300P/L318F/N151K/P208A/P217A/Q86R/R138H/R169H/S129P/T345S/V36M)
# A*0203 = A*0203 (Homo sapiens, UniProt P04439, A173T/D140Y/D185E/D98H/E277Q/G131W/G231S/I119V/I121R/I166T/I218V/L180W/L300P/L318F/N151K/N90K/P208A/P217A/Q86G/Q94H/R138H/R169H/T345S)
# A*0206 = A*0206 (Homo sapiens, UniProt P04439, D140Y/D185E/D98H/E176V/E277Q/F33Y/G131W/G231S/I119V/I121R/I166T/I218V/L300P/L318F/N151K/N90K/P208A/P217A/Q86G/Q94H/R138H/R169H/T345S)
# HLA-A*0201 (HLA-A2.1) = HLA-A*0201 (HLA-A2.1) (Homo sapiens, UniProt P04439, D140Y/D185E/D98H/E176V/E277Q/G131W/G231S/I119V/I121R/I166T/I218V/L300P/L318F/N151K/N90K/P208A/P217A/Q86G/Q94H/R138H/R169H/T345S)
# A*0202 = A*0202 (Homo sapiens, UniProt P04439, D140Y/D185E/D98H/E176V/E277Q/G131W/G231S/I119L/I121R/I166T/I218V/L180W/L300P/L318F/N151K/N90K/P208A/P217A/Q67R/Q86G/Q94H/R138H/R169H/T345S)
Compound,IC50 (A*6802),IC50 (A*0203),IC50 (A*0206),IC50 (HLA-A*0201 (HLA-A2.1)),IC50 (A*0202)
TIESTPFNVV [Peptide 9013.0130],0.305 µM,671 nM,3230 nM,15600 nM,
TVESTPFNV [Peptide 9013.0013],,6160 nM,2390 nM,17200 nM,1910 nM
FLGALKSFL [Peptide 1578.11],,2.1 nM,1720 nM,719 nM,0.3 nM
ELLLLVHNL [Peptide 9013.0022],,> 20000 nM,7180 nM,,1880 nM
VLFTCEPET [Peptide 9013.0045],> 20 µM,502 nM,> 20000 nM,2540 nM,
YVCGIQNSVSV [Peptide 9013.0337],,159 nM,58 nM,,
TLVTTITVYA [Peptide 9013.0193],,57 nM,1740 nM,781 nM,11 nM
AIFGVNPTI [Peptide 86.0178],3.54 µM,324 nM,,1820 nM,13 nM
NLTVNNSGSYT [Peptide 9013.0303],,> 20000 nM,> 20000 nM,> 20000 nM,> 20000 nM
KVTIESTPFNV [Peptide 9013.0265],1.55 µM,40 nM,93 nM,2580 nM,
WQRLLLTASV [Peptide 9013.0115],> 20 µM,36 nM,2230 nM,5110 nM,
CC(C)[C@H](NC(=O)[C@@H](NC(=O)[C@H](CC(N)=O)NC(=O)[C@H](CCC(N)=O)NC(=O)[C@H](C)NC(=O)[C@H](CCC(=O)O)NC(=O)[C@@H]1CCCN1C(=O)[C@H](CCC(=O)O)NC(=O)[C@H](CS)NC(=O)[C@@H](NC(=O)[C@@H](N)Cc1ccccc1)[C@@H](C)O)[C@@H](C)O)C(=O)O [Peptide 9013.0323],,86 nM,920 nM,336 nM,29 nM
NVAEGKEVLV [Peptide 9013.0133],,19600 nM,> 20000 nM,> 20000 nM,1140 nM
VLYGPDAPV [Peptide 9013.0052],3.26 µM,19 nM,,48 nM,2.4 nM
GVNLSLSCHAV [Peptide 9013.0311],0.947 µM,2590 nM,,2090 nM,63 nM
QQHTQVLFV [Peptide 9013.0102],> 20 µM,80 nM,,2100 nM,1420 nM
NLLYGPDDPTI [Peptide 9013.0310],> 20 µM,8650 nM,> 20000 nM,9880 nM,
LQLSNDNRV [Peptide 9013.0072],> 20 µM,> 20000 nM,,> 20000 nM,1700 nM
LLFWNPPTT [Peptide 9013.0007],> 20 µM,4.3 nM,,11 nM,15 nM

Compound,IC50 (A*6802),IC50 (A*0203),IC50 (A*0206),IC50 (HLA-A*0201 (HLA-A2.1)),IC50 (A*0202)
ILIGVLVGVAL [Peptide 9013.0347],> 20 µM,1010 nM,120 nM,1520 nM,
RVLQQLLFI [Peptide 1545.01],10.6 µM,24 nM,8.5 nM,27 nM,
RLQLSNGNRV [Peptide 9013.0224],> 20 µM,669 nM,> 20000 nM,17600 nM,
MTANPPIPV [Peptide 1539.01],0.002 µM,2.5 nM,,2.3 nM,7.2 nM
LLTFWNPPTTV [Peptide 9013.0259],7.54 µM,58 nM,,762 nM,67 nM
FLKGCIISYV [Peptide 1578.43],0.795 µM,2 nM,,341 nM,0.85 nM
YTLHVIKSDV [Peptide 9013.0151],0.016 µM,972 nM,54 nM,4370 nM,
TLVLFIAKI [Peptide 9013.0106],13 µM,21 nM,29 nM,16600 nM,
CC[C@H](C)[C@H](NC(=O)[C@@H](NC(=O)[C@H](CC(C)C)NC(=O)[C@@H](N)CS)[C@@H](C)O)C(=O)N[C@@H](Cc1c[nH]cn1)C(=O)N[C@@H](Cc1ccc(O)cc1)C(=O)N[C@@H](CC(N)=O)C(=O)N[C@@H](Cc1ccc(O)cc1)C(=O)N[C@H](C(=O)O)C(C)C [Peptide 1323.07],0.64 µM,65 nM,,270 nM,216 nM
TTVTTITVYV [Peptide 9013.0192],0.017 µM,326 nM,,1040 nM,21 nM
RLYVCGIQNSV [Peptide 9013.0335],> 20 µM,24 nM,,170 nM,6.3 nM
SLPVSPRLQV [Peptide 9013.0222],> 20 µM,155 nM,> 20000 nM,7310 nM,
TLELFIPNI [Peptide 9013.0060],,398 nM,84 nM,29 nM,
LIQPYSIYA [Peptide 86.0202],3.3 µM,2110 nM,428 nM,1400 nM,
ILAEAMSKA [Peptide 1516.09],2.65 µM,2.8 nM,,72 nM,3.5 nM
TVELFIPNITV [Peptide 9013.0300],0.193 µM,> 20000 nM,1640 nM,8210 nM,
TQVLFIAKV [Peptide 9013.0105],,27 nM,46 nM,1040 nM,
KLTSLCVTL [Peptide 1537.03],> 20 µM,91 nM,,91 nM,29 nM
KLTPLCVIL [Peptide 1516.15],> 20 µM,968 nM,,356 nM,74 nM

Compound,IC50 (A*6802),IC50 (A*0203),IC50 (A*0206),IC50 (HLA-A*0201 (HLA-A2.1)),IC50 (A*0202)
KLLEKLLCI [Peptide 1578.15],> 20 µM,15 nM,51 nM,,
KLLSKLLCV [Peptide 1578.03],> 20 µM,36 nM,,55 nM,68 nM
ILYPNASLL [Peptide 9013.0030],14.7 µM,4.2 nM,,130 nM,1.8 nM
LLLVHNLPQHV [Peptide 9013.0275],> 20 µM,652 nM,5140 nM,4820 nM,
WLRLLLTASL [Peptide 9013.0116],19.8 µM,32 nM,17400 nM,8820 nM,
ILNDTGFYTL [Peptide 9013.0150],11.3 µM,59 nM,,152 nM,2.1 nM
WLRLLLTASLL [Peptide 9013.0254],> 20 µM,12 nM,11800 nM,3480 nM,
VLAEAMSKA [Peptide 1539.07],4.58 µM,7.6 nM,,69 nM,3.4 nM
ILNIIQNDT [Peptide 9013.0033],> 20 µM,8010 nM,> 20000 nM,> 20000 nM,
TQELFIPNV [Peptide 9013.0059],4.93 µM,3320 nM,55 nM,308 nM,
TLGIMIGVL [Peptide 9013.0108],> 20 µM,1700 nM,9060 nM,7420 nM,
CC[C@H](C)[C@H](NC(=O)CN)C(=O)N[C@@H](CCSC)C(=O)N[C@H](C(=O)NCC(=O)N[C@H](C(=O)N[C@@H](CC(C)C)C(=O)N[C@H](C(=O)NCC(=O)N[C@H](C(=O)N[C@H](C(=O)O)C(C)C)C(C)C)C(C)C)C(C)C)[C@@H](C)CC [Peptide 9013.0344],,82 nM,912 nM,563 nM,
KLITVSAEL [Peptide 9013.0084],> 20 µM,27 nM,,71 nM,3.3 nM
SLLTFWNPPV [Peptide 9013.0118],0.024 µM,159 nM,,208 nM,76 nM
VQWAYDHDI [Peptide 86.0205],> 20 µM,> 20000 nM,,6900 nM,6840 nM
QLSNGNRTV [Peptide 9013.0095],> 20 µM,54 nM,> 20000 nM,15100 nM,
TLESTPFNV [Peptide 9013.0012],0.241 µM,221 nM,,216 nM,19 nM
VLAEAMSAA [Peptide 1516.11],0.474 µM,0.87 nM,10 nM,24 nM,
RTLQQLLFA [Peptide 1525.18],> 20 µM,394 nM,18 nM,948 nM,
